Earlier results on 1 molecule are cited in US20110009340A1, “COMBINATION OF AN IRON CHELATOR AND AN IMMUNOSUPPRESSANT AND USE THEREOF” (NOVARTIS AG, priority 2008, published 2011).

SMILES strings stand for the structures.

As for `CC(=O)N(O)CCCCCNC(=O)CCC(=O)N(O)CCCCCNC(=O)CCC(=O)N(O)CCCCCN.CS(=O)(=O)O` [Deferoxamine mesylate USP, N-[5-[3-[(5-aminopentyl)hydroxycarbamoyl]propionamido]pentyl]-3-[[5-(N-hydroxyacetamido)pentyl]carbamoyl]propionohydroxamic acid monomethanesulfonate (salt)], the solubility in methanol result (methanol) was “slightly soluble”. Further, the solubility in water entry (water) is “freely soluble”.
